Experiments:
Agouti mice = assay: Weight gain and food consumption in Agouti mice, 21 days; type: in vivo; conditions: 50 or 100 mg/kg orally twice daily
Procedure: Agouti mice, which are obese, diabetic and leptin resistant, were treated orally twice daily with 50 or 100 mg/kg of 4-[…] for 21 consecutive days. Body weight and food consumption were measured daily.

ob/ob mouse = assay: Body weight gain and food consumption of ob/ob mice, 56 days; type: in vivo; conditions: 100 mg/kg twice daily
From the text: The objective of this study was to evaluate the effect of chronic administration of 4-hydroxyisoleucine (4-OH, compound 14a) on food consumption and body weight gain in a genetic model of obesity, the ob/ob mouse. Body weight gain and food consumption were monitored for 1 week prior to the commencement of treatment, and then for the 56 days of treatment.
A total of 16 animals were used in the study. The animals were distributed into 2 groups (1 treated, 1 control group, all on standard chow). Each group was composed of 8 animals. The mice were randomized according to body weight values.
For the eight weeks of treatment, the test agent was dissolved in reverse osmosis water. 4-hydroxyisoleucine was aliquoted and kept at 4° C. Control animals received reverse osmosis water twice daily (group 1). Mice from group 2 were treated twice daily with 4-OH at 100 mg/kg. All groups were treated by oral gavage. Treatment commenced on Day 0 and ended on Day 56 (FIGS. 21A and 21B). Food consumption was measured daily and averaged on a weekly basis beginning one week before the start of treatment as shown in FIG. 21B.

Sprague-Dawley rats = assay: 13-week oral toxicity study: body weight and lipid profiles of SD rats fed regular chow; type: in vivo
Procedure: Sprague-Dawley rats were received at 7-12 weeks of age (225-300 g). […] The control group received vehicle (water) alone. Body weights were recorded once prior to group assignment, and approximately one week prior to initiation of treatment. Then, body weights were recorded for all animals up to 1 day prior to dosing and weekly thereafter during the treatment period. At the end of the treatment period, a blood sample was withdrawn to measure plasma triglyceride and cholesterol levels.

[1] = tested on: C57BL/6 mice fed a high fat diet; assay: Analogs and isomers of 4-hydroxyisoleucine on body weight gain in C57BL/6 mice fed a high fat diet, 3 days; type: in vivo
Procedure: C57BL/6 mice were received at 6-7 weeks of age and fed a standard commercial chow for 1 week (acclimation period). The animals were randomized based on their body weight values, into control and treatment groups (n=6). Then, animals were shifted to a high fat diet (60% of calories from fat) and treated twice daily by oral gavage with 4-hydroxyisoleucine (4-OH, compound 14a) or different analogs and isomers of 4-OH at the dose of 100 mg per kg of body weight for 3 days. The control group (Control HFD) received vehicle (water) alone and a group was kept under standard chow (Control Lean). Body weight of the mice was recorded daily. Two different experiments were run and the effect on body weight gain of selected analogs and isomers according to the invention is presented in FIG. 30A (Experiment 1) and FIG. 30B (Experiment 2).

obese mice = assay: Compound 22 and 4-hydroxyisoleucine on weight gain of obese mice, 21 days; type: in vivo, C57BL/6 mice; conditions: p<0.01
Procedure: The objective of the following study was to evaluate the effect of the lactone form of 4-hydroxyisoleucine (compound 22) on the weight gain of obese mice. 40 C57BL/6 mice were fed a high fat diet (60% of calories from fat) for 6 weeks in order to induce obesity. Animals were than randomized to 5 study groups of 8 mice each according to their body weight values. Thereafter, the animals were treated orally twice daily with either the water vehicle, 50 mg/kg of compound 22, 100 mg/kg of compound 22, 50 mg/kg of 4-hydroxyisoleucine or 100 mg/kg of 4-hydroxyisoleucine. The treatment lasted 21 days and body weight of mice were determined daily from day 1 to day 21 of the study.

[2] = tested on: Wistar rat model of diet-induced obesity; assay: Food consumption, weight gain and plasma triglycerides in Wistar rat model of diet-induced obesity, 28 days; type: in vivo, Wistar rats; conditions: for triglycerides plasma levels: 28 days
From the text: A total of 60 animals were used in the study. The animals were distributed into 6 groups; 1 group was fed standard chow, 1 group was fed a high fat, high sucrose (HFHS) diet with 28 days treatment, 1 untreated control group was fed a HFHS diet, and 1 untreated group was fed a HFHS diet, but with caloric intake restricted to match the caloric intake of the 4-OH treated animals (pair-fed animals). A fifth group was fed a high fat, high sucrose (HFHS) diet with 28 days treatment and received an acute oral administration of 4-OH just prior to experimentation on Day 29 of the study, and a sixth group was fed a HFHS diet, but with caloric intake restricted to match the caloric intake of the 4-OH treated animals receiving an acute oral administration of 4-OH on Day 29 of the study (pair-fed animals). Each group was composed of 10 animals. […] Body weights were measured once weekly from week 1 to week 4 of the study. For the four weeks of treatment, the test article 4-OH was dissolved in reverse osmosis water. 4-OH aliquoted and kept at 4° C. […] Untreated animals received water twice daily.

HSL = assay: RT-PCR gene expression in adipocytes of treated rats: HSL; type: in vivo
Procedure: (§1) As the ex vivo studies on adipocytes indicated the lipolytic effect of drug was due to chronic exposure (see previous example), a role in gene regulation was assessed. RT-PCR was used to assess the expression of genes in the adipocytes from treated and control animals.

ATGL = assay: RT-PCR gene expression in adipocytes of treated rats: ATGL; type: in vivo
Procedure: as §1

FABP4/ap2 = assay: RT-PCR gene expression in adipocytes of treated rats: FABP4/ap2; type: in vivo
Procedure: as §1

FatB1 = assay: RT-PCR gene expression in adipocytes of treated rats: FatB1; type: in vivo; conditions: data not shown
Procedure: as §1

[3] = 100, 200, 400 mg/kg/day, Day 92
[4] = HFHS diet, treated for 4 weeks (28 days)

C[C@@H]([C@H](C)O)[C@H](N)C(=O)O [Compound 14a, (2S,3R,4S)-4-Hydroxyisoleucine]
food intake (Agouti mice): little effect on food intake | body weight gain (Agouti mice; vs vehicle): significant decrease of body weight gain | food consumption (ob/ob mouse): slight decrease in food consumption during the first three weeks of treatment | weight gain (ob/ob mouse; Day 21 to Day 56, vs control group): significantly reduced | weight gain (ob/ob mouse; course of treatment): moderation of weight gain was observed | tolerability of treatment (ob/ob mouse; oral gavage, 56 days): well tolerated | average body weight at end of treatment, male rats (Sprague-Dawley rats; 200 mg/kg/day, 13 weeks): 527 g | average body weight at end of treatment, male rats (Sprague-Dawley rats; 400 mg/kg/day, 13 weeks): 520 g | reduction of triglycerides, significance (Sprague-Dawley rats; 400 mg/kg/day, male rats): statistically significant | cholesterol levels, male rats (Sprague-Dawley rats; [3]): reduced in a dose-dependant manner | triglyceride levels, male rats (Sprague-Dawley rats; [3]): reduced in a dose-dependant manner | body weight, male rats (Sprague-Dawley rats; 200 and 400 mg/kg/day once daily oral, 13 weeks, vs control): clear reduction of body weight compared to control rats | reduction of cholesterol, significance (Sprague-Dawley rats; 200 and 400 mg/kg/day, male rats): statistically significant | body weight gain induced by the high fat diet ([1]; 100 mg/kg twice daily oral gavage): reduced body weight gain induced by the high fat diet | body weight compared to pre-treatment values ([1]; 100 mg/kg twice daily, one experiment (FIG. 30B)): reduced body weight of the mice as compared to pre-treatment values | body weight (obese mice; 100 mg/kg orally twice daily, 21 days, vs water control): significant reduction of body weight compared to the water control group | white fat mass (epididymal fat) (obese mice; 100 mg/kg, end of treatment): loss of the white fat mass (epididymal fat) | triglycerides plasma levels ([2]; 100 mg/kg twice daily, p<0.05): lower triglycerides plasma levels | triglycerides plasma levels ([2]; 100 mg/kg twice daily, p<0.05, listed as 4-OH): significantly decreased compared to the respective pair fed groups | food consumption ([2]; 100 mg/kg twice daily, first week, vs HFHS control): slightly decreased | weight gain after 28 days of treatment ([2]; 100 mg/kg twice daily, p<0.05): significantly decreased compared to the pair fed group and the HFHS control group | weight gain after 28 days of treatment ([2]; chronic 4-OH plus an acute oral administration on Day 29, p<0.05): significantly decreased compared to the respective pair-fed group and the HFHS control group | expression of hormone sensitive lipase (HSL), increase (HSL): 1.3-1.4 times | Increase (x times) in expression of HSL (HSL; [4]): 1.3 x times | expression of ATGL, increase (ATGL): more than two times | Increase (x times) in expression of ATGL (ATGL; [4]): 2.6 x times | expression of FABP4/ap2, increase (FABP4/ap2): 1.3-1.4 times | Increase (x times) in expression of FABP4/ap2 (FABP4/ap2; [4]): 1.4 x times | expression of FatB1 (FatB1): Upregulation
